Type in all cases: cell-based
The test system of assay [1] is Linezolid Resistant Streptococcus pneumoniae. The assay can be described thus: MIC, agar supplemented with 5% defibrinated horse blood. As to conditions: agar + 5% horse blood, 48 hours. How it is done: (§1) The following results were obtained on a standard in-vitro test system. The activity is described in terms of the minimum inhibitory concentration (MIC) determined by the agar-dilution technique with an inoculum size of 10^4 CFU/spot. Typically, compounds are active in the range 0.01 to 256 μg/ml.
(§2) Streptococci and enterococci were tested on agar supplemented with 5% defibrinated horse blood, an inoculum of 10^4 CFU/spot and an incubation temperature of 37° C. in an atmosphere of 5% carbon dioxide for 48 hours—blood is required for the growth of some of the test organisms. Fastidious Gram negative organisms were tested in Mueller-Hinton broth, supplemented with hemin and NAD, grown aerobically for 24 hours at 37° C., and with an innoculum of 5×10^4 CFU/well.

The next assay deals with Streptococcus pneumoniae. The assay is described as above. As to conditions: agar + 5% horse blood, 10^4 CFU/spot, 37° C., 5% carbon dioxide, 48 hours. How it is done: as §1, §2
The test system of another assay is Enterococcus faecium. The assay is described as above. The note with it: agar + 5% horse blood, 10^4 CFU/spot, 37° C., 5% carbon dioxide, 48 hours. The procedure: as §1, §2
In assay [2] the test system is Staphylococcus aureus MSQS (methicillin sensitive and quinolone sensitive). The assay can be described thus: MIC, agar-dilution, standard in-vitro test system. As to conditions: 10^4 CFU/spot, 37° C., 24 hours. The procedure: as §1
(§3) Staphylococci were tested on agar, using an inoculum of 10^4 CFU/spot and an incubation temperature of 37° C. for 24 hours—standard test conditions for the expression of methicillin resistance.

In assay [3] the test system is Staphylococcus aureus MRQR (methicillin resistant and quinolone resistant). The assay can be described thus: MIC, agar-dilution, standard in-vitro test system. The note with it: 10^4 CFU/spot, 37° C., 24 hours. The procedure: as §1, §3
Another assay relates to Haemophilus influenzae. The assay can be described thus: MIC, Mueller-Hinton broth supplemented with hemin and NAD. As to conditions: 24 hours, 37° C., 5×10^4 CFU/well. The procedure: as §1, §2
A further assay concerns Moraxella catarrhalis. Described as above. As to conditions: 24 hours, 37° C., 5×10^4 CFU/well. The procedure:
as §1, §2

In brackets after ≈: the same amount, converted by molar mass.

On to `Cn1nnc(-c2ccc(-c3ccc(N4C[C@H](CNc5ccon5)OC4=O)cc3F)cn2)n1` [Example 2], for which the MIC in assay [1] came to 2 µg/mL; with Streptococcus pneumoniae it was 0.13 µg/mL; in the assay on Enterococcus faecium it was 0.5 µg/mL; in assay [2], 0.5 µg/mL (≈ 1.15 µM); in assay [3], 0.5 µg/mL (≈ 1.15 µM); against Haemophilus influenzae, 64 µg/mL (≈ 147 µM). This compound also returned an MIC in the assay on Moraxella catarrhalis of 0.5 µg/mL (≈ 1.15 µM).

The values are drawn from patent publication US20060116389A1, “Antibacterial oxazolidinones” (ASTRA ZENECA AB, priority 2002, published 2006).
